Marks after values point to notes of the source that are not given here.
Assays:
[1] = system: rats with hemorrhagic stroke; experiment: Intracerebral posttraumatic hematoma (hemorrhagic stroke): survival; assay type: in vivo; settings: 20 mg/kg single dose intraperitoneally 3-3.5 hours after surgery
Source text: White nondescript male rats with body weight 200-250 g, which lived in vivarium and had feed (standard palletized feed) and water ad libitum, with natural alternation of day and night, were used in the experiments. Hemorrhagic stroke (local cerebral hemorrhage) was simulated according to method by A. N. Makarenko et al. (Method of local hemorrhage simulation I various structures of the brain in experimental animals. Journal Visshei Nervnoy Deyatelnosti—Journal of Higher Nervous Activities, 2002, v. 52, No 6, p. 765-768). In nembutal-anesthetized rats (40 mg/kg, i.m.) destruction of the brain tissue in capsule interna area was made with the use of special device (mandarin-knife) followed by application of blood (0.02-0.03 ml) taken from under the rat's tongue to the damaged area (within 2-3 minutes). False-operated animals underwent scalping and craniotomy. The animals were divided into 5 groups: intact rats, false-operated rats, animals with hemorrhagic stroke received nooglutyl at 20 mg/kg, and animals with hemorrhagic stroke received Compound I at 20 mg/kg. Effects were recorded within 24 hours and 14 days after the surgery. Learning ability and memory of the rats was examined in the model of passive avoidance response (PAR, Passive Avoidance supplied by Lafayette Instrument Co., USA). To determine neurological deficit in the animals Stroke-index McGrow scale modified by I. V. Gannushkina (Functional architectonics of the brain, Moscow, Medicina, 1977, 224 p.) was used. The severity of the condition was determined by the sum of the points. The number of rats with mild symptoms up to 2.5 points of Stroke-index scale (apathy, weakness of the extremities, unilateral semiptosis, tremor, circus movements) and severe manifestations of neurological disorders (3 to 10 points)—paresis of the extremities, palsy of low extremities, lateral position. The animals received single dose of nooglutyl and Compound I at the same dose 20 mg/kg intraperitoneally within 3-3.5 hours after the surgery. Controlled animals were treated with saline. At onset of the experiment each group comprised 15-20 animals. Mortality of the rats was recorded throughout the observation period (14 days). Statistical analysis was made using parametrical and non-parametrical methods and Biostat software. Nimodipin administered at 01.mg/kg according to above scheme was considered as a standard.

[2] = system: white nondescript male mice; experiment: in vivo; settings: white nondescript (outbred), mouse, ip, 2 days
Method: The study of acute daily toxicity of Compound I was carried out on white nondescript male mice with body weight 25-28 g, which lived in habitual conditions in vivarium and received feed and water ad libitum. Single dose of Compound I was administered intraperitoneally. The animals were under observation for 2 days after the dosing. The dose levels of Compound I used in the toxicity study were as follows: 800 mg/kg, 1000 mg/kg, 1200 mg/kg, 1500 mg/kg, 1600 mg/kg. Compound I was dissolved in distilled water and administered in 0, 1 ml per 10 g of the body weight of the animal when the doses 800 mg/kg and 1000 mg/kg, and in 0.2 ml per 10 g of the body weight when the doses 1200 mg/kg, 1500 mg/kg, 1600 mg/kg were used. Control animals received distilled water in the volume 0.2 ml per 10 g of the body weight.
Each dose group comprised 10 animals.

mice SAM P 10 [3] = experiment: Antidepressant activity: forced swimming in mice SAM; assay type: in vivo; settings: first 6 minutes of forced swimming
Method: Exp. Gerontolol. 1997, […]. et al. Age-related deterioration in conditional avoidance task in the SAM-P/10 mouse, an animal model of spontaneous brain atrophy. Brain Res., 1993, v. 608, p. 266-272). To assess depressive condition the method of forced swimming was used (Porsolt R. D. et al., Behavioral despair in rats: a new model sensitive to antidepressant treatment. Europ. J. […] The mice were placed into cylinder 10 cm in diameter and 25 cm height. Cylinder was filled with water by 1⁄3 (27° C.). After unsuccessful attempts to get out of the water the animals have typical immovable posture, which is regarded as manifestation of “despair”.

mice SAM P 10 [4] = experiment: Anxiolytic activity: elevated criss-cross labyrinth in mice SAM P10; assay type: in vivo; settings: 5 minutes observation
Source text: (Takeda T. et al. Senescence-Accelerated Mouse (SAM): A novel murine model of accelerated senescence. J. Amer. Geriatr. Soc. 1991, v. 39, p. 911-919). The animals belonging to this line are characterized by genetically determined depression and impairment of learning capacity, these symptoms intensively aggravate since 6 months of age (accelerated senescence) (Miyamoto M., Characteristics of age-related behavioral changes in senescence-accelerated mouse SAMP8 and SAMP10. Exp. Gerontolol. 1997, v. 32, p. 139-148; Shimada A. et al. Age-related deterioration in conditional avoidance task in the SAM-P/10 mouse, an animal model of spontaneous brain atrophy. Brain Res., 1993, v. 608, p. 266-272). Assessment of anxiety level of the mice was carried out under conditions of “elevated criss-cross labyrinth” (ECCL) method (Pellow S. et al. Validation of open:closed arm entries in elevated plus-maze as a measure of anxiety in the rat. Neurosci Meth J. 1985, No 14, p. 149-167; Voronina T. A. et al. “Textbook for Experimental (Preclinical Study) of novel pharmacological compounds”. Moscow, Medicina. 2005, p. 253-263). Labyrinth comprises crossed bands 5×45 cm, with two opposed compartments having vertical walls 30 cm height (closed, dark arms), and two other compartments are open, light arms. Labyrinth is situated 30 cm above the floor. Central platform […] is located at the cross of the planes. The mice were placed on the central platform with their tails directed to light arm. Time spent by the animals in open and closed arms, and the number of entering light and dark arms was registered. Total observation period comprised 5 minutes for each animal. Time spent in the open arms of the unit was considered as the measure of anxiolytic effect.

O=C([O-])CC[C@H](NC(=O)c1cncc(O)c1)C(=O)[O-].[Ca+2] [Compound I, Calcium N-(5-hydroxynicotinoyl)-L-glutamate]
Number of animals which died in relation to total number of operated animals, absolute, Day 1 after surgery [1]: 1 of 20
Number of animals which died in relation to total number of operated animals, absolute, Day 3 after surgery [1]: 2 of 20
Number of animals which died in relation to total number of operated animals, absolute, Day 7 after surgery [1]: 2 of 20
Number of animals which died in relation to total number of operated animals, absolute, Day 14 after surgery [1]: 2 of 20
Number of animals which died, %, Day 1 after surgery [1]: 5%
Number of animals which died, %, Day 3 after surgery [1]: 10## %
Number of animals which died, %, Day 7 after surgery [1]: 10## %
Number of animals which died, %, Day 14 after surgery [1]: 10%
Number of animals which died, %, Day 14 after surgery ([1]; listed as compound I): 10## %
LD16 [2]: 900 mg/kg
LD84 [2]: 1450 mg/kg
Period of active behaviour (mice SAM P 10 [3]; 10 mg/kg): 190.00 ± 9.50 s
Period of active behaviour (mice SAM P 10 [3]; 20 mg/kg): 225.00 ± 10.97 s
Number of entries the closed arms (mice SAM P 10 [4]; 5 mg/kg): 15.6 ± 2.1
Number of entries the opened arms (mice SAM P 10 [4]; 5 mg/kg): 5.7 ± 0.6
Time spent in the closed arms (c) (mice SAM P 10 [4]; 5 mg/kg): 247.0 ± 6.4 c
Time spent in the opened arms (c) (mice SAM P 10 [4]; 5 mg/kg): 21.1 ± 4.6 c
Number of entries the closed arms (mice SAM P 10 [4]; 10 mg/kg): 20.51 ± 3.1
Number of entries the opened arms (mice SAM P 10 [4]; 10 mg/kg): 7.7 ± 0.2
Time spent in the closed arms (c) (mice SAM P 10 [4]; 10 mg/kg): 262.0 ± 22.1 c
Time spent in the opened arms (c) (mice SAM P 10 [4]; 10 mg/kg): 23.9 ± 5.8 c
Number of entries the closed arms (mice SAM P 10 [4]; 20 mg/kg): 19.3 ± 2.5
Number of entries the opened arms (mice SAM P 10 [4]; 20 mg/kg): 13.0 ± 1.1
Time spent in the closed arms (c) (mice SAM P 10 [4]; 20 mg/kg): 234.8 ± 8.7 c
Time spent in the opened arms (c) (mice SAM P 10 [4]; 20 mg/kg): 28.4 ± 6.2 c

O=C(O)CC[C@H](NC(=O)c1cncc(O)c1)C(=O)O [Nooglutyl, N-(5-hydroxynicotinoyl)-L-glutamic acid, reference compound]
Number of animals which died in relation to total number of operated animals, absolute, Day 1 after surgery [1]: 3 of 20
Number of animals which died in relation to total number of operated animals, absolute, Day 3 after surgery [1]: 4 of 20
Number of animals which died in relation to total number of operated animals, absolute, Day 7 after surgery [1]: 4 of 20
Number of animals which died in relation to total number of operated animals, absolute, Day 14 after surgery [1]: 4 of 20
Number of animals which died, %, Day 1 after surgery [1]: 15%
Number of animals which died, %, Day 3 after surgery [1]: 20# %
Number of animals which died, %, Day 7 after surgery [1]: 20# %
Number of animals which died, %, Day 14 after surgery [1]: 20%
Number of animals which died, %, Day 14 after surgery ([1]; listed as nooglutyl): 20## %

From US8030493B2, “Monovalent and divalent salts of N-(5-hydroxynicotinoil) -L-glutamic acid exhibiting psychotropic (antidepressant and anxiolytic), neuroprotective, geroprotective and cerebroprotective action” (Obschestvo S Ogranichennoy Otvetstvennostyu “Natsionalnaya …, priority 2006, dated 2011)
